From patent publication US8507509B2, “Saturated and insaturated bi- or tricyclic aryloxyacetamine derivatives and their use as fungicides” (Syngenta Crop Protection LLC, priority 2007, dated 2013)
Read-outs that look alike come from different tables or passages of the source.

Experiments:
[1] = tested on: Plasmopara viticola; test: Plasmopara viticola (downy mildew of grapevine), grapevine leaf disk assay, preventive; type: in vivo; details: foliar, 168 h, read-out: control of fungal infection, Plasmopara viticola
[2] = tested on: Erysiphe graminis f.sp. tritici; test: Erysiphe graminis f.sp. tritici (wheat powdery mildew), wheat leaf segment assay, preventive; type: in vivo; details: Blumeria graminis, foliar, 96 h, read-out: control of fungal infection, Etysiphe graminis f.sp. tritici
[3] = tested on: Phytophthora infestans; test: whole plant or invertebrate; type: in vivo; details: in Solanum lycopersicum, foliar, 96 h, read-out: control of fungal infection, Phytophthora infestans
[4] = tested on: Septoria tritici; test: Septoria tritici (leaf blotch), liquid culture growth inhibition in nutrient broth; type: cell-based; details: Zymoseptoria tritici, read-out: control of fungal infection, Septoria tritici
[5] = tested on: Fusarium culmorum; test: Fusarium culmorum (root rot), liquid culture growth inhibition in nutrient broth; type: cell-based; details: PDB broth, 24 C, inhibition of growth determined photometrically after 48 hrs, read-out: control of fungal infection, Fusarium culmorum
Experimental: Mycelia fragments or conidia suspensions of a fungus, prepared either freshly from liquid cultures of the fungus or from cryogenic storage, are directly mixed into nutrient broth. DMSO solutions of the test compound (max. 10 mg/ml) is diluted with 0.025% Tween20 by factor 50 and 10 μl of this solution is pipetted into a microtiter plate (96-well format) and the nutrient broth containing the fungal spores/mycelia fragments is then added to give an end concentration of the tested compound. The test plates are incubated at 24° C. and 96% rH in the dark. The inhibition of fungal growth is determined photometrically after 2-6 days and antifungal activity is calculated.
Fusarium culmorum (root rot): Conidia of the fungus from cryogenic storage were directly mixed into nutrient broth (PDB potato dextrose broth). After placing a (DMSO) solution of the test compounds into a microtiter plate (96-well format) the nutrient broth containing the fungal spores was added. The test plates were incubated at 24 C and the inhibition of growth was determined photometrically after 48 hrs.

[6] = tested on: Pythium ultimum; test: Pythium ultimum (Damping off), liquid culture growth inhibition in potato dextrose broth; type: cell-based; details: Globisporangium ultimum, read-out: control of fungal infection, Pythium ultimum
[7] = tested on: Puccinia recondita f.sp. tritici; test: Puccinia recondita f.sp. tritici (wheat brown rust), wheat leaf segment assay, preventive; type: in vivo; details: foliar, 216 h, read-out: control of fungal infection, Puccinia recondite f.sp. tritici
[8] = tested on: Septoria nodorum; test: Septoria nodorum (wheat glume blotch), wheat leaf segment assay, preventive; type: in vivo; details: Parastagonospora nodorum, foliar, 96 h, read-out: control of fungal infection, Septoria nodorum
[9] = tested on: Botrytis cinerea; test: Botrytis cinerea (grey mould), bean leaf disk assay, preventive; type: in vivo; details: foliar, 96 h, read-out: control of fungal infection, Botrytis cinerea
[10] = 200 ppm, grapevine leaf disks, assessed seven days after inoculation
[11] = 200 ppm, wheat leaf segments, assessed four days after inoculation
[12] = 200 ppm, PDB broth, 24 C, inhibition of growth determined photometrically after 72 hrs
[13] = 20 ppm, potato dextrose broth, 24° C., inhibition of growth determined photometrically after 48 hours
[14] = 200 ppm, wheat leaf segments, assessed nine days after inoculation
[15] = 200 ppm, bean leaf disks, assessed four days after inoculation

Row | Structure (SMILES) | melting point | pest or weed control at 200 ppm [1, 10] | pest or weed control at 200 ppm [2, 11] | pest or weed control at 200 ppm [3] | inhibition of growth at 200 ppm [4, 12] | inhibition of growth at 200 ppm [5] | inhibition of growth at 20 ppm [6, 13] | pest or weed control at 200 ppm [7, 14] | pest or weed control at 200 ppm [8, 11] | pest or weed control at 200 ppm [9, 15] | pest or weed control at 200 ppm [1] | pest or weed control at 200 ppm [7] | pest or weed control at 200 ppm [2] | pest or weed control at 200 ppm [8] | inhibition of growth at 200 ppm ([4]; 72 h) | pest or weed control at 200 ppm [9] | inhibition of growth at 20 ppm ([6]; 48 h)
1 | CON=CC(C)(C#N)NC(=O)C(Oc1cc(C)c2ncc(Br)cc2c1)SC (stereo not shown) [Compound No. 54, 2-(3-Bromo-8-methyl-quinolin-6-yloxy)-N-(1-cyano-2-methoxyimino-1-methyl-ethyl)-2-methylsulfanyl-acetamide] | 156 to 159 °C | ≥ 60% | ≥ 60% | ≥ 60% | ≥ 60% | ≥ 60% | ≥ 60% |  |  |  |  |  |  |  |  |  | 
2 | C#Cc1cnc2ccc(OC(SC)C(=O)NC(C)(C#N)C=NOC)cc2c1 (stereo not shown) [Compound No. 59, N-(1-Cyano-2-methoxyimino-1-methyl-ethyl)-2-(3-ethynyl-quinolin-6-yloxy)-2-methylsulfanyl-acetamide] |  | ≥ 60% | ≥ 60% | ≥ 60% | ≥ 60% | ≥ 60% |  | ≥ 60% | ≥ 60% | ≥ 60% |  |  |  |  |  |  | 
3 | CCC(Oc1ccc2ncc(Br)cc2c1)C(=O)NC(C)(C#N)C=NOC (stereo not shown) [Compound No. 60, 2-(3-Bromo-quinolin-6-yloxy)-N-(1-cyano-2-methoxyimino-1-methyl-ethyl)-butyramide] | 152 to 155 °C |  |  | ≥ 60% | ≥ 60% |  | ≥ 60% |  |  | ≥ 60% |  |  |  |  |  |  | 
4 | C#Cc1cnc2ccc(OC(CC)C(=O)NC(C)(C#N)C=NOC)cc2c1 (stereo not shown) [Compound No. 61, N-(1-Cyano-2-methoxyimino-1-methyl-ethyl)-2-(3-ethynyl-quinolin-6-yloxy)-butyramide] |  | ≥ 60% | ≥ 60% | ≥ 60% | ≥ 60% | ≥ 60% | ≥ 60% | ≥ 60% | ≥ 60% | ≥ 60% |  |  |  |  |  |  | 
5 | C#CCOCC(C)(C=NOC)NC(=O)C(Oc1ccc2ncc(C#C)cc2c1)SC (stereo not shown) [Compound No. 62, 2-(3-Ethynyl-quinolin-6-yloxy)-N-(2-methoxyimino-1-methyl-1-prop-2-ynyloxymethyl-ethyl)-2-methylsulfanyl-acetamide] |  | ≥ 60% | ≥ 60% | ≥ 60% | ≥ 60% |  | ≥ 60% | ≥ 60% | ≥ 60% | ≥ 60% |  |  |  |  |  |  | 
6 | COCC(C)(C=NOC)NC(=O)C(Oc1ccc2ncc(Br)cc2c1)SC (stereo not shown) [Compound No. 64, 2-(3-Bromo-quinolin-6-yloxy)-N-[2-methoxy-1-(methoxyimino-methyl)-1-methyl-ethyl]-2-methylsulfanyl-acetamide] |  | ≥ 60% | ≥ 60% | ≥ 60% | ≥ 60% | ≥ 60% | ≥ 60% | ≥ 60% | ≥ 60% | ≥ 60% |  |  |  |  |  |  | 
7 | C#Cc1cnc2ccc(OC(SC)C(=O)NC(C)(C=NOC)COC)cc2c1 (stereo not shown) [Compound No. 65, 2-(3-Ethynyl-quinolin-6-yloxy)-N-(2-methoxyimino-1-methoxymethyl-1-methyl-ethyl)-2-methylsulfanyl-acetamide] |  | ≥ 60% | ≥ 60% | ≥ 60% | ≥ 60% | ≥ 60% | ≥ 60% | ≥ 60% | ≥ 60% | ≥ 60% |  |  |  |  |  |  | 
8 | C#Cc1cnc2ccc(OC(SC)C(=O)NC(C)(C#C)C=NOC)cc2c1 (stereo not shown) [Compound No. 69, 2-(3-Ethynyl-quinolin-6-yloxy)-N-[1-(methoxyimino-methyl)-1-methyl-prop-2-ynyl]-2-methylsulfanyl-acetamide] |  | ≥ 60% | ≥ 60% | ≥ 60% | ≥ 60% | ≥ 60% | ≥ 60% | ≥ 60% | ≥ 60% | ≥ 60% |  |  |  |  |  |  | 
9 | C#Cc1cnc2ccc(OC(OC)C(=O)NC(C)(C)C=NOC)cc2c1 (stereo not shown) [Compound No. 76, 2-(3-Ethynyl-quinolin-6-yloxy)-2-methoxy-N-(2-methoxyimino-1,1-dimethyl-ethyl)-acetamide] |  |  |  | ≥ 60% |  | ≥ 60% |  |  |  |  | ≥ 60% | ≥ 60% | ≥ 60% | ≥ 60% | ≥ 60% | ≥ 60% | ≥ 60%
10 | CON=CC(C)(C)NC(=O)C(Oc1cc(Cl)c2ccsc2c1)SC (stereo not shown) [Compound No. 81, 2-(4-Chloro-benzo[b]thiophen-6-yloxy)-N-(2-methoxyimino-1,1-dimethyl-ethyl)-2-methylsulfanyl-acetamide] | 120 to 122 °C | ≥ 60% |  |  | ≥ 60% |  |  |  |  | ≥ 60% |  |  |  |  |  |  | 
11 | CON=CC(C)(C)NC(=O)C(Oc1ccc2ocnc2c1)SC (stereo not shown) [Compound No. 88, 2-(benzooxazol-5-yloxy)-N-(2-methoxyimino-1,1-dimethyl-ethyl)-2-methylsulfanyl-acetamide] | 95 to 96 °C |  |  |  |  |  | ≥ 60% |  |  |  |  |  |  |  |  |  | 
12 | CON=CC(C)(C)NC(=O)C(Oc1cc(C)c2ncncc2c1)SC (stereo not shown) [Compound No. 91, N-(2-Methoxyimino-1,1-dimethyl-ethyl)-2-(8-methyl-quinazolin-6-yloxy)-2-methylsulfanyl-acetamide] | 109 to 112 °C | ≥ 60% |  | ≥ 60% |  |  | ≥ 60% |  |  | ≥ 60% |  |  |  |  |  |  | 
13 | C#Cc1cnc2ccc(OC(SC)C(=O)NC(C)(C)CC=NOC)cc2c1 (stereo not shown) [Compound No. 95, 2-(3-Ethynyl-quinolin-6-yloxy)-N-(3-methoxyimino-1,1-dimethyl-propyl)-2-methylsulfanyl-acetamide] |  | ≥ 60% | ≥ 60% | ≥ 60% | ≥ 60% | ≥ 60% | ≥ 60% | ≥ 60% | ≥ 60% | ≥ 60% |  |  |  |  |  |  | 
14 | C#Cc1cnc2ccc(OC(CC)C(=O)NC(C)(C)C=NO)cc2c1 (stereo not shown) [Compound No. 147, 2-(3-Ethynyl-quinolin-6-yloxy)-N-(2-hydroxyimino-1,1-dimethyl-ethyl)-butyramide] |  | ≥ 60% | ≥ 60% | ≥ 60% | ≥ 60% | ≥ 60% | ≥ 60% | ≥ 60% | ≥ 60% |  |  |  |  |  |  |  | 
15 | C#Cc1cnc2ccc(OC(CC)C(=O)NC(C)(C)C=NOCC)cc2c1 (stereo not shown) [Compound No. 148, N-(2-Ethoxyimino-1,1-dimethyl-ethyl)-2-(3-ethynyl-quinolin-6-yloxy)-butyramide] |  | ≥ 60% | ≥ 60% | ≥ 60% | ≥ 60% | ≥ 60% | ≥ 60% | ≥ 60% | ≥ 60% |  |  |  |  |  |  |  | 
16 | C#Cc1cnc2ccc(OC(CC)C(=O)NC(C)(C)C=NOCC=C)cc2c1 (stereo not shown) [Compound No. 149, N-(2-Allyloxyimino-1,1-dimethyl-ethyl)-2-(3-ethynyl-quinolin-6-yloxy)-butyramide] |  |  | ≥ 60% |  | ≥ 60% | ≥ 60% | ≥ 60% | ≥ 60% |  | ≥ 60% |  |  |  |  |  |  | 
